According to EP2794556B1, “BIS-(ARYL/HETEROARYL)-METHYLENE COMPOUNDS, PHARMACEUTICAL COMPOSITIONS CONTAINING SAME AND THEIR USE FOR TREATING CANCER” (Gleason, James L., priority 2011, dated 2013):
Read-outs that look alike come from different tables or passages of the source.

Columns and labels:
HDAC6 = target: T1, HDAC6 (Homo sapiens, UniProt Q9UBN7); assay: Fluorogenic HDAC inhibition assay, purified enzyme
T1 sequence (Q9UBN7 1-1215): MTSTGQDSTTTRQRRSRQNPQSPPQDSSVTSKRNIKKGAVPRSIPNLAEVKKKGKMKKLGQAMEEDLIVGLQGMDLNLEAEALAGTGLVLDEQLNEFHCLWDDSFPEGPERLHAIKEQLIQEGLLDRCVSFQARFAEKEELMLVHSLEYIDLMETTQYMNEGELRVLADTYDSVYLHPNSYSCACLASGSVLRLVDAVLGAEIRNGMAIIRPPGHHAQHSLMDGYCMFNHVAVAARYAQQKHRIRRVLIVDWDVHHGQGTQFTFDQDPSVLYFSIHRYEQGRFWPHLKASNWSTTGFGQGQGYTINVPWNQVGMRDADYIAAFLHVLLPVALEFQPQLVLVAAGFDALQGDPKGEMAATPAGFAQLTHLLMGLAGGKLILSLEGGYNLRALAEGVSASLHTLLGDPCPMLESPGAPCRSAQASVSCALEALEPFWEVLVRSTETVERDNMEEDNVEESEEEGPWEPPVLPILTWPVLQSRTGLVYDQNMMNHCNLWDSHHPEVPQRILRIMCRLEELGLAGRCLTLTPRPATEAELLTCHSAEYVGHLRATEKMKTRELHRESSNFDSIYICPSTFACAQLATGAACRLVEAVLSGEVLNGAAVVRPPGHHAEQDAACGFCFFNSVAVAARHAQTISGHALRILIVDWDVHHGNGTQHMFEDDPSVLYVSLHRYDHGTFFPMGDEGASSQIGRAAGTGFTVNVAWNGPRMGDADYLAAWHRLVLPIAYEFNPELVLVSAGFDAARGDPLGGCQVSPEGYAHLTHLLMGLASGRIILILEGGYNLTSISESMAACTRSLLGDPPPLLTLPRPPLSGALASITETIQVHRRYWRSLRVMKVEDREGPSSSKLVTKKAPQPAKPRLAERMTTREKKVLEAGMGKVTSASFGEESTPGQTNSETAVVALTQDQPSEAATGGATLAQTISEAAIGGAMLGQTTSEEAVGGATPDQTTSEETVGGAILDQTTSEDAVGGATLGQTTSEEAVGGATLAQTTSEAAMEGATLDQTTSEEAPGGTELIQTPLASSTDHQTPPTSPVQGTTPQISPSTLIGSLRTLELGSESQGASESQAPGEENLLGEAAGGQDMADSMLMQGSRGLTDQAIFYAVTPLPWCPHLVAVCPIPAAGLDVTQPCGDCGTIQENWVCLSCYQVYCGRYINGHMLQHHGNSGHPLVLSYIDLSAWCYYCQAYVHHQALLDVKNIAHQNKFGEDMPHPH
Method: (§3) Fluorogenic HDAC inhibition assay. Boc-Lys(Ac)-7-amino-4-methylcoumarin (Boc-Lys(Ac)-AMC) was used as substrate for the HDAC assays. […] Trypsin was used to stop the reaction, releasing free AMC. The trypsin solution was prepared as follow: trypsin was dissolved in HDAC buffer to give a concentration of 10 mg/mL. Release of AMC was monitored by measuring the fluorescence at 460 nm (lex = 390 nm) with a microplate reader (SpectraMax Gemini) at 37 °C. The AMC signals were recorded against a blank with buffer, substrate and trypsin but without the enzyme. All experiments were carried out at least in triplicate.
(§4) For standard HDAC assays, 50 µL of HDAC buffer was mixed with 10 µL of diluted enzyme solution in HDAC buffer at room temperature. The HDAC reaction was started by adding 40 µL of substrate solution in HDAC buffer followed by 30 min of incubation with stirring at 37 °C. The reaction was stopped by adding 100 µL of trypsin solution. After a 10 min incubation with stirring at 37 °C, the release of AMC was monitored by measuring the fluorescence. For HDAC inhibition assays, inhibitor diluted in 50 µL of HDAC buffer was mixed with 10 µL of diluted enzyme solution in HDAC buffer at room temperature. The HDAC reaction was started by adding 40 µL of substrate solution in HDAC buffer followed by 30 min of incubation with stirring at 37 °C. The reaction was stopped by adding 100 µL of trypsin solution. After a 10 min incubation with stirring at 37 °C, the release of AMC was monitored by measuring the fluorescence.

SCC4 cells [1] = assay: LDH cytotoxicity assay; assay type: cell-based, human; conditions: vitamin D resistant SCC4 cells, Figures 10 and 11
Method: The cytotoxic effects of compounds were screened using a Cytotoxicity Assay Kit (Cayman Chemical), which measures release of the soluble […] enzyme lactate dehydrogenase (LDH) from dying cells into the culture medium using a coupled two-step reaction. LDH in the media catalyzes the reduction of NAD+ to NADH and H+ by oxidation of lactate to pyruvate. LDH-catalyzed NADH production is then measured by following diaphorase catalyzed NADH-dependent reduction of a tetrazolium salt (INT) to highly-colored formazan which absorbs strongly at 490-520 nm.
The proliferation assays above indicated the cessation of growth.

SCC4 cells [2] = assay: MTS cell proliferation assay; assay type: cell-based, human; conditions: vitamin D resistant SCC4 cells, Figures 7c, 8 and 9
Source text: Dose-dependent effects of compounds on cell cycle progression was monitored using a CellTiter 96 Aqueous Non-Radioactive Cell Proliferation Assay Kit (Promega). The assay composed of solutions of a novel tetrazolium compound (MTS) and an electron coupling reagent (phenazine methosulfate; PMS). MTS is reduced by metabolically active cells into a soluble formazan product that absorbs at 490nm. The quantity of formazan product absorbing at 490nm is directly proportional to the number of living cells.

VDR [3] = target: T2, VDR (Homo sapiens, UniProt P11473); assay: VDR agonism by induction of CYP24 gene expression (RT/PCR); assay type: cell-based; conditions: for VDR agonist activity and potency, induction of CYP24 gene expression / VDR agonism by induction of CYP24 gene expression: SCC25 cells; for VDR agonist activity and potency, induction of CYP24 gene expression: Fig. 1b, 1d; for VDR agonism by induction of CYP24 gene expression: screen at 10 µM, Fig. 1a; for induction of CYP24 by the compound was blocked: Fig. 1c, blocking agent not given
T2 construct: endogenous in cells; host or cells: SCC25 human head and neck squamous carcinoma cells
T2 sequence (P11473 1-427): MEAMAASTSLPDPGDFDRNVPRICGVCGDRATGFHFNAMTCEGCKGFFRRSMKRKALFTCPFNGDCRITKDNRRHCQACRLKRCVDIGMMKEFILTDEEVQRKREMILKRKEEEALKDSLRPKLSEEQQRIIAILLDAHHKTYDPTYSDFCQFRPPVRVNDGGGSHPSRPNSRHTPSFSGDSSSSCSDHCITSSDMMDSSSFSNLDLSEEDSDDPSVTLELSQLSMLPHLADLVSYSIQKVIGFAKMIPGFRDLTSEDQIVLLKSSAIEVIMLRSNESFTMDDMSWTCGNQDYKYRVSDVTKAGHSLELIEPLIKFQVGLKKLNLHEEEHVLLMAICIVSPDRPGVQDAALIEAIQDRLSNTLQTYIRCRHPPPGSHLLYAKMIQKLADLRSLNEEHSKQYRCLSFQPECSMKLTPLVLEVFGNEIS
Method: Cell culture. Human head and neck squamous carcinoma cell lines SCC4 and SCC45 and mouse HNSCC line AT84 were purchased from American Type Culture Collection (Manassas, VA) and cultured under recommended conditions. Cells were split at 60-70% confluence, as follows: cells were washed with filtered PBS, split with a 5-10 min incubation with 1 ml Trypsin-EDTA (Invitrogen, Carlsbad, CA) in PBS, collected with medium. Following centrifugation, the supernatant was removed. Cell pellets were resuspended with DMEM-F12, and distributed on fresh media-containing dishes. For treatments, AT84 cells were split and 24h later medium was changed to DMEM + 10% charcoal-stripped FBS.
RNA isolation and RT/PCR analysis. […]. Proc. Nat. Acad. Sci. U.S.A. 105, 8250-55. and Lamblin, M.et al Bioorganic & Medicinal Chemistry (2010) 18:4119-4137. After treatment, cells were washed with PBS, homogenized with 1ml TRIzol Reagent (Invitrogen, Carlsbad, CA), kept at room temperature for 2-5 min, collected and kept at -80 °C for at least 1h. After, thawing 0.2 ml chloroform was added. After vigorous mixing and storing for 10min, mixtures were centrifuged (10,000rpm, 15 min, 4 °C) and the upper transparent layer was transferred to a new tube. 0.5 ml isopropanol was added and the new solution was mixed. After centrifuging at 4 °C, the supernatant was discarded and 1ml of 75% ethanol was added. After centrifuging and discarding the supernatant, the pellet was air-dried for 5-10 min, and then dissolved in ddH2O. RNA concentrations were measured using a spectrophotometer, and 1-3µg of RNA were loaded for reverse transcriptase reactions (total volume: 20 µl). 80µl of ddH2O was added to the RT-product, and 1.5µl of that was used as template for the PCR reaction. Reverse transcriptase (Super Script II) was purchased from Invitrogen (Carlsbad, CA). DNA polymerase and dNTP's were ordered from Fermentas (Glen Burnie, MD).
(§1) Test compounds (10 µM) were first screened for VDR agonism by analysis of induction of CYP24 gene expression in 1,25D-sensitive human SCC25 cells. […]. Consistent with binding to the VDR, induction of CYP24 by compound JF-B01, compound JF-B53 or compound 16 (JF-B54) was blocked (Fig. 1c). […]

VDR [4] = target: T2, VDR; assay: Chromatin immunoprecipitation (ChIP) assay, CYP24 promoter, SCC25 cells; assay type: cell-based; conditions: Fig. 1e
Method: Chromatin immunoprecipitation assays. ChIP assays were performed with sonicated extracts of SCC25 cells as described (see Wang, T.-T. et al. J Immunol (2004) 173:2909-2912). […] Immunoprecipitations were performed using normal rabbit IgG, anti-VDR antibody (c-20) (Santa Cruz Biotechnology, Santa Cruz, CA). […].
as §1

HDAC3 = HDAC3 (Homo sapiens, UniProt O15379); assay: Fluorogenic HDAC inhibition assay, purified enzyme
Method: as §3, §4

AT84 cells = assay: EdU cell growth assay; conditions: 1,25D-sensitive AT84 cells, Fig. 2d
Method: (§5) EdU cell growth assay. Click-iT EdU Alexa Fluor high-throughput imaging (HCS) assay for cell proliferation. HCS assays were performed on AT84 mouse squamous carcinoma cell line (ATCC) following the manufacturer's instruction (Molecular Probes, Invitrogen). […] All samples were in triplicate.

SCC4 cells [5] = assay: EdU cell growth assay; conditions: for inhibition of proliferation, EdU incorporation: 1,25D-resistant SCC4 cells, Fig. 2e, f
Method: as §5

[6] = system: total intracellular HDAC activity in SCC4 cells; assay: HDACi activity with fluorogenic substrate in live cells; assay type: cell-based, human; conditions: increasing concentration, Fig. 2a, b
Source text: (§2) This assay measures the inhibition of total intracellular HDAC activity and determines the capacity of compounds to inhibit HDACs in the form of their naturally occurring complexes.

[7] = system: total intracellular HDAC activity in SCC25 cells; assay: as above; assay type: cell-based, human; conditions: increasing concentration, Fig. 2a, b
Source text: as §2

SCC25 cells = assay: EdU cell growth assay; conditions: higher concentrations
Method: as §5

Chain of HDAC3 (O15379 whole entry, species assumed): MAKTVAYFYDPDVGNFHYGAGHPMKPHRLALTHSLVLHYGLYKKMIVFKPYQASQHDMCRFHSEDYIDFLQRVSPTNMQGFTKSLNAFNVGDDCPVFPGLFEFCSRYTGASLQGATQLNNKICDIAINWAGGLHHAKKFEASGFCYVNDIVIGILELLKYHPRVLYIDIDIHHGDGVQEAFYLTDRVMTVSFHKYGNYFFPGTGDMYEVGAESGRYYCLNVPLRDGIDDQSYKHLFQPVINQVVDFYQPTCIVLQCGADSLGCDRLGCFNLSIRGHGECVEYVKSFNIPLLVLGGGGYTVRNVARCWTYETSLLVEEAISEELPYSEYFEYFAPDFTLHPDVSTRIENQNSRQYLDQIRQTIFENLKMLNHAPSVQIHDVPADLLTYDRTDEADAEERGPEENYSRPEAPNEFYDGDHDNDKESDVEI
Chain of HDAC3 (Q9Y618 395-489 partner limits assumed, species assumed): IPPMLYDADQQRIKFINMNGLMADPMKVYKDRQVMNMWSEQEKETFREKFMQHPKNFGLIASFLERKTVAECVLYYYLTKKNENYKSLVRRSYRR

SMILES | IC50 (HDAC6) | cytotoxicity, LDH release (SCC4 cells [1]) | antiproliferative potency (SCC4 cells [2]) | VDR agonist activity and potency, induction of CYP24 gene expression (VDR [3]) | IC50 (HDAC3) | inhibition of proliferation, EdU incorporation (SCC4 cells [5]) | other results
CCC(CC)(c1ccc(OCC(=O)NO)cc1)c1ccc(OCC(O)C(C)(C)C)c(C)c1 (stereo not shown) [DK-366, N-hydroxy-2-(4-(3-(4-(2-hydroxy-3,3-dimethylbutoxy)-3-methylphenyl)pentan-3-yl)phenoxy)acetamide] | 6.6 to 8.2 µM | good cytotoxicity | low micromolar potency | – | – | – | –
CCC(CC)(c1ccc(OCC(O)C(C)(C)C)c(C)c1)c1c[nH]c2cc(CCC(=O)NO)ccc12 (stereo not shown) [DK-222, N-hydroxy-3-(3-(3-(4-(2-hydroxy-3,3-dimethylbutoxy)-3-methylphenyl)pentan-3-yl)-1H-indol-6-yl)propanamide] | – | good cytotoxicity | low micromolar potency | – | – | – | –
CCC(CC)(c1ccc(OCC(=O)NO)c(C)c1)c1ccc(OC[C@H](O)C(C)(C)C)c(C)c1 [JF-C71, N-Hydroxy-2-(4-(3-(4-((2R)-hydroxy-3,3-dimethylbutoxy)-3-methylphenyl)pentan-3-yl)-2-methylphenoxy)acetamide] | 26.1 µM | – | low micromolar potency | VDR agonists with similar potencies | 22 µM | – | binding of the VDR to the vitamin D response element in the proximal promoter of the CYP24 gene (VDR [4]): induced binding of the VDR
CCC(CC)(c1ccc(OCC(=O)NO)c(C)c1)c1ccc(OCC(CO)CO)c(C)c1 [JF-B21] | 37.9 µM | – | – | – | 36.1 µM | failed to block SCC4 proliferation | VDR agonism by induction of CYP24 gene expression (VDR [3]): completely inactive; inhibition of proliferation, EdU incorporation (AT84 cells): failed to block AT84 proliferation
CCC(CC)(c1ccc(OCC(=O)NO)c(C)c1)c1ccc(OCC(C)(C)O)c(C)c1 [JF-B53, N-Hydroxy-2-(4-(3-(4-(2-hydroxy-2-methylpropoxy)-3-methylphenyl)pentan-3-yl)-2-methylphenoxy)acetamide] | 33.3 µM | – | – | VDR agonist activity, but with reduced potency | 17 µM | partially blocked EdU incorporation | induction of CYP24 by the compound was blocked (VDR [3]): blocked
CCC(O)(CC)COc1ccc(C(CC)(CC)c2ccc(OCC(=O)NO)c(C)c2)cc1C [JF-B54, 2-(4-(3-(4-(2-Ethyl-2-hydroxybutoxy)-3-methylphenyl)pentan-3-yl)-2-methylphenoxy)-N-hydroxyacetamide] | 31.5 µM | – | – | VDR agonist activity, but with reduced potency | 29.9 µM | completely | induction of CYP24 by the compound was blocked (VDR [3]): blocked; HDACi activity, substrate deacetylation [6]: most potent; HDACi activity, substrate deacetylation [7]: most potent; EdU incorporation at higher concentrations (SCC25 cells): completely abolished EdU incorporation; EdU incorporation at higher concentrations (SCC4 cells [5]; SCC4 cells, higher concentrations): completely abolished EdU incorporation
CCC(CC)(c1ccc(OCC(O)C(C)(C)C)c(C)c1)c1ccc(OCC(=O)NO)c(Br)c1 (stereo not shown) [DK-309, 2-(2-bromo-4-(3-(4-(2-hydroxy-3,3-dimethylbutoxy)-3-methylphenyl)pentan-3-yl)phenoxy)-N-hydroxyacetamide] | – | good cytotoxicity | – | – | – | – | –
CCC(CC)(c1ccc(OCC(=O)NO)c(C)c1)c1ccc(OCC(=O)NO)c(C)c1 [JF-B06] | 4.7 µM | – | – | – | – | – | VDR agonism by induction of CYP24 gene expression (VDR [3]): completely inactive; IC50 (HDAC6; read-out: HDAC6 IC50, purified enzyme in vitro): 4.7 µM; inhibition of proliferation, EdU incorporation (AT84 cells): failed to block AT84 proliferation
CCC(CC)(c1ccc(OCC(=O)NO)c(C)c1)c1ccc(OC[C@@H](O)C(C)(C)C)c(C)c1 [JF-C72, N-Hydroxy-2-(4-(3-(4-((2S)-hydroxy-3,3-dimethylbutoxy)-3-methylphenyl)pentan-3-yl)-2-methylphenoxy)acetamide] | – | – | low micromolar potency | VDR agonists with similar potencies | – | – | binding of the VDR to the vitamin D response element in the proximal promoter of the CYP24 gene (VDR [4]): induced binding of the VDR
